{"source": "a melting point compilation (Tetko et al.; mined from patent text by program, amines drawn as free bases though some values may be those of a salt)", "data": [{"units": {"melting point": "°C"}, "values": [{"smiles": "COc1ccc(-c2n[nH]cc2C(=O)N2CCOCC2)cc1OC", "melting point": 122}, {"smiles": "O=C(NC(=O)C(c1ccccc1)c1ccccc1)OCC1CC1", "melting point": 108}, {"smiles": "COc1cc(Cc2nccc3c(OCc4ccccc4)cc(OCc4ccccc4)cc23)cc(OC)c1OC", "melting point": "158 to 160"}, {"smiles": "CC(C)C(CS(=O)(=O)c1ccc(-c2cccc(CNC(=O)c3nc4ccccc4c(=O)[nH]3)c2)cc1)N(O)C=O", "note": "(centres undefined)", "melting point": "153 to 155"}, {"smiles": "COC(=O)c1cc(C(C)OC)c(C(F)(F)F)cc1N", "note": "(centres undefined)", "melting point": "112 to 114"}, {"smiles": "CC(C)n1nc(-c2sc(N)nc2-c2cccc(F)c2)ccc1=O", "melting point": "237 to 238"}, {"smiles": "COc1ccc(CNC(=O)c2cc3c(=O)n(CC#Cc4ccccc4)c(=O)n(C)c3s2)cc1", "melting point": "168 to 171"}, {"smiles": "Cc1nnc(-c2ccc3occ(-c4ccc(O)cc4)c3c2)o1", "melting point": "226 to 227"}, {"smiles": "Cc1cc(=O)c(-c2ccc(Oc3ccc(OC(F)(F)F)cc3)cc2)c(C)[nH]1", "melting point": "244 to 248"}, {"smiles": "CC1CCc2ccc(N)c3c(=O)c(C(=O)O)cn1c23", "note": "(centres undefined)", "melting point": "247 to 249"}, {"smiles": "COc1ccc(S(=O)(=O)C(CC=C(C)C)(Cc2ccc(OCCN3CCOCC3)cc2)C(=O)NO)cc1", "note": "(centres undefined)", "melting point": 92}, {"smiles": "COc1cc(N)c(Cl)cc1C(=O)NCC1CCN(CCCCCN)CC1", "melting point": "60 to 63"}, {"smiles": "C1=C(c2nc3ccccc3o2)CCN(Cc2ccccc2)C1", "melting point": "129 to 130"}, {"smiles": "O=C(O)c1ccccc1CN1CCc2sccc2C1", "melting point": "200 to 205"}, {"smiles": "O=C(Nc1c[nH]nc1C(=O)NCCCO)c1ccccn1", "melting point": "209 to 211"}, {"smiles": "O=c1ncc(Cl)cn1CSc1ccc(Cl)cc1", "melting point": 191}, {"smiles": "C=CCN1CC(C)N(C(c2cccc(O)c2)c2cccc(C#N)c2)CC1C", "note": "(centres undefined)", "melting point": "169 to 171"}, {"smiles": "CNS(=O)(=O)c1ccc(Oc2ccc(NC(C)=O)cc2)cc1", "melting point": "183 to 184"}, {"smiles": "CC12CCC3c4ccc(O)cc4CC(O)C3C1CCC2O", "note": "(centres undefined)", "melting point": "254 to 257"}, {"smiles": "Cc1nc([C@@H](Cc2c[nH]c3ccccc23)NC(=O)OC(C)(C)C)oc1C", "melting point": "138 to 140"}, {"smiles": "CC(C)CC(O)(Cn1ccnn1)c1ccccc1", "note": "(centres undefined)", "melting point": "94 to 95"}, {"smiles": "CC(=O)n1c(=O)oc2c3ncccc3ccc21", "melting point": "192 to 193"}, {"smiles": "CN(c1ccccc1)c1ncnc2cc(C(F)(F)F)ccc12", "melting point": "135 to 137"}, {"smiles": "CC(=O)NCC1CN(c2cc(F)c(N3CCN(C(=O)OC(C)(C)C)CC3)c(F)c2)C(=O)O1", "note": "(centres undefined)", "melting point": "177 to 179"}, {"smiles": "CC(C)(COc1ccc(O)c(C(N)=O)c1)NCC(O)c1ccccc1", "note": "(centres undefined)", "melting point": "121 to 123"}, {"smiles": "CN1CCN(c2ccc3nnn(Cc4ccc5ncccc5c4)c3n2)CC1", "melting point": "131 to 133"}, {"smiles": "CC(C)c1nc2ccccc2c(-c2ccc(F)cc2)c1/C=C/I", "melting point": "129 to 131"}, {"smiles": "COc1cc(CC(=O)c2c(O)c3cccnc3n(-c3ccccc3)c2=O)cc(OC)c1", "melting point": "170 to 171"}, {"smiles": "O=S(=O)(c1cccc2cccnc12)N1CCN(CCc2ccc(F)cc2)CC1", "melting point": 141}, {"smiles": "C=Cc1c(N)nc(-c2ccc(Cl)c(OC)c2F)nc1C(=O)OC", "melting point": "145 to 147"}, {"smiles": "COc1ccc2c(c1)C(=O)N(CCN(C)CCN1C(=O)c3cc(OC)c(OC)cc3C(C)(C)C1=O)C(=O)C2(C)C", "melting point": "118 to 120"}, {"smiles": "Fc1ccc(N2CCN(CCCc3cnc4n3CCCC4)CC2)cc1", "melting point": "106 to 108"}, {"smiles": "O=C(NC12CC3CC(CC(C3)C1)C2)c1ccccc1C(c1ccc(O)cc1)c1ccc(O)cc1", "melting point": "167 to 169"}, {"smiles": "O=C(Cn1cnc(-c2ccc(OCc3ccccc3)cc2)n1)c1ccc(F)cc1F", "melting point": "142 to 143"}, {"smiles": "COc1cc(C=CC(=O)Nc2cnc3ccc(Cl)cc3c2-c2ccccc2C)cc(OC)c1OC(C)=O", "melting point": "277 to 278"}, {"smiles": "COc1ccc(C2(C)C(=O)Nc3cc(Cl)cc(Cl)c3C2=O)cc1[N+](=O)[O-]", "note": "(centres undefined)", "melting point": "255 to 256"}, {"smiles": "C=CCNc1nc2c(c(N3CCN(C)CC3)n1)CCCN2CC=C", "melting point": 81}, {"smiles": "O=C(NCc1ccc([N+](=O)[O-])cc1)N(c1ccccc1)c1ccccc1", "melting point": "137 to 138"}, {"smiles": "CCOc1nc(-c2ccc(OC)c(OC)c2)cc(=Nc2c(C)cc(C)cc2C)n1C", "melting point": "116 to 119"}, {"smiles": "Cc1cc2[nH]c(C)nc(N3CCOCC3)c-2n1", "melting point": "242 to 243"}, {"smiles": "Clc1cc(Nc2nnc(-c3ccc4nonc4c3)s2)ccc1Br", "melting point": "326 to 327"}, {"smiles": "CC(=C1SCCCS1)c1ccc(Oc2ccc(O)cc2)cc1", "melting point": 84.5}, {"smiles": "O=C(NCCc1ccccc1)Nc1ccc2ncc(Br)cc2n1", "melting point": "245 to 246"}, {"smiles": "O=C1NC(O)c2cccn2-c2ccsc21", "note": "(centres undefined)", "melting point": 172}, {"smiles": "N#Cc1c(N)nc2ccc(N3CCN(Cc4ccccc4)CC3)cc2c1N=Cc1ccccc1", "melting point": 202}, {"smiles": "CCOC(=O)c1cc([N+](=O)[O-])c(=O)[nH]c1C(=O)OCC", "melting point": "144 to 145"}, {"smiles": "CN(Cc1cc2c(=O)c(C(=O)NCc3ccc(Cl)cc3)cn(C)c2s1)C[C@@H](O)c1ccc([N+](=O)[O-])cc1", "melting point": "181 to 183"}, {"smiles": "O=c1[nH]cc(Br)cc1Nc1ccncn1", "melting point": "150 to 151"}, {"smiles": "O=C(c1ccoc1)c1ccc(O)c(Cl)c1Cl", "melting point": "138 to 142"}, {"smiles": "Cc1cccc2c1C(=O)N(C)Cc1c(C#CC(C)(C)O)ncn1-2", "melting point": "165 to 167"}, {"smiles": "CS(=O)(=O)Nc1cccc(OCCCN2CCC(OC(c3ccccc3)c3ccccc3)CC2)c1", "melting point": "90 to 95.5"}, {"smiles": "CCCCN1C(=O)C2=C(c3ccc(Cl)cc3)N(CCCC)C(=O)C2=C1c1ccc(Cl)cc1", "melting point": "176 to 177"}, {"smiles": "O=S1(=O)NC(C23CC4CC(CC(C4)C2)C3)Nc2c(Br)cc(Br)cc21", "note": "(centres undefined)", "melting point": "270 to 273"}, {"smiles": "COC(=O)c1sc2c(c1O)CCC2", "melting point": "73 to 75"}, {"smiles": "COC(=O)c1scc(Cl)c1N", "melting point": "62 to 64"}, {"smiles": "CNC(=O)c1ccc(-c2coc3ccc(-c4nnc(C)o4)cc23)cc1F", "melting point": "183 to 184"}, {"smiles": "CC(=O)c1ccc2c(c1)N(C(=O)OC(C)(C)C)CCC2", "melting point": "125 to 127"}, {"smiles": "CCS(=O)(=O)CCN1CCCCC1", "melting point": "45 to 47"}, {"smiles": "COc1cc(Nc2nc3cccc(-c4cccc(C)c4)c3o2)cc(OC)c1OC", "melting point": "153 to 155"}, {"smiles": "COc1ccc(C2Cc3ccccc3-c3nc(N)c4ccccc4c32)c(OC)c1OC", "note": "(centres undefined)", "melting point": 283}, {"smiles": "Cn1nc(-c2ccc(NN=C(CCC(=O)O)c3ccc(O)cc3O)cc2)ccc1=O", "melting point": "138 to 141"}, {"smiles": "O=C(c1ccoc1)c1cccc(-c2c(O)c3ccc(Cl)cc3[nH]c2=O)c1", "melting point": "284 to 286"}, {"smiles": "CN(Sc1ccc(C(C)(C)C)cc1)C(=O)Oc1cccc2c1OC(C)(C)C2", "melting point": "120 to 123"}, {"smiles": "CCc1oc(C)cc(=O)c1O", "melting point": "157 to 159"}, {"smiles": "CC(C)CN1C(=O)CCC(c2ccccc2Cl)c2ccccc21", "note": "(centres undefined)", "melting point": "139 to 140"}, {"smiles": "CCC(=C(c1ccccc1)c1ccc(C=CC(=O)O)cc1)c1ccccc1", "melting point": "148 to 150"}, {"smiles": "CNC(=O)CCC12CC(c3ccccc31)c1ccccc12", "melting point": "200 to 201"}, {"smiles": "Cc1cc(-n2ccnc2)c2cccc(OCc3c(Cl)ccc(S(=O)(=O)N4CCC[C@H]4C(=O)N4CCN(c5ccncc5)CC4)c3Cl)c2n1", "melting point": 136}, {"smiles": "COc1nc2cc([N+](=O)[O-])c(C)c(C(=O)NCC(=O)OC(C)(C)C)c2nc1OC", "melting point": "125 to 126"}, {"smiles": "CCC(OC(C)=O)c1ccc(Cl)c2nc3n(c12)CCCN3c1ccc(OC)cc1Cl", "note": "(centres undefined)", "melting point": "178 to 180"}, {"smiles": "COC(=O)c1cc(O)ccc1N", "melting point": "154 to 155"}, {"smiles": "CC(C)n1nc(-c2cc(NC(=O)OC(C)(C)C)cnc2-c2ccccc2)ccc1=O", "melting point": "221 to 223"}, {"smiles": "Nc1ccc(NC(=S)NC2CCCCC2)cn1", "melting point": "147 to 149"}, {"smiles": "COC(=O)C1=CC(=O)CCC1c1ccccc1", "note": "(racemic)", "melting point": 66}, {"smiles": "Cc1ccc(C23CNCC2CC3=O)cc1", "note": "(centres undefined)", "melting point": "130 to 133"}, {"smiles": "CC(C)(C)NCC(O)COc1ccccc1-c1nc(C(F)(F)F)c[nH]1", "note": "(centres undefined)", "melting point": "105 to 107"}, {"smiles": "ON=Cc1ccc(Cl)c(Cl)c1OCc1ccccc1", "melting point": "64 to 69"}, {"smiles": "Cc1oc2ccc(Nc3ncccc3N)cc2c1C", "melting point": "168 to 170"}, {"smiles": "CC(=O)C1C(Cl)CC2C3CCC4CC(O)C(Cl)CC4(C)C3C(=O)CC21C", "note": "(centres undefined)", "melting point": "192 to 194"}, {"smiles": "CCCOc1ccc(/C=C/c2nc3c([nH]2)c(=O)n(CCC)c(=O)n3CCC)cc1", "melting point": "248 to 249"}, {"smiles": "COc1cc(C(=O)N2Cc3ccc(C(=O)NCc4ccc5c(c4)OCCO5)n3Cc3ccccc32)ccc1-c1ccccc1C", "melting point": "153 to 155"}, {"smiles": "CO[C@@H]1C=C2C=C3C(=C(C)C(=O)N3C)C[C@]2(C)[C@@H](C)[C@H]1OC(=O)c1cccs1", "melting point": "148 to 153"}, {"smiles": "CNC(=S)NCc1cc(-c2ccc(Cl)cc2)no1", "melting point": 135}, {"smiles": "COc1cc(CNc2n[nH]c3ncnc(Nc4cccc(Cl)c4)c23)ccc1O", "melting point": "223 to 225"}, {"smiles": "COCCN(C)Cc1cc(C(=O)Nc2nc3c(OC)ccc(C4COCCOC4)c3s2)ccn1", "melting point": "100 to 107"}, {"smiles": "O=Cc1ccnc2ccc(Cl)cc12", "melting point": "152 to 153"}, {"smiles": "Cc1cc(N(N)c2ccccc2)nc(N)n1", "melting point": "173 to 174"}, {"smiles": "COC(=O)c1cc(S(N)(=O)=O)c(OC)c2c1OCCO2", "melting point": "202 to 203"}, {"smiles": "CC(C)N(CCCNC(=O)Cn1ncc(-c2ccccc2)c1-c1ccccc1)C(C)C", "melting point": "83 to 84"}, {"smiles": "CC(=O)OCCOC(C)n1cc(F)c(=O)[nH]c1=O", "note": "(centres undefined)", "melting point": "121 to 122"}, {"smiles": "CC(c1oc2ccccc2c(=O)c1-c1cccc(F)c1)n1nc(-c2cccc(OC(F)(F)F)c2)c2c(N)ncnc21", "note": "(centres undefined)", "melting point": "155 to 157"}, {"smiles": "NS(=O)(=O)c1ccc(CCCNCC(O)c2ccccc2)cc1", "note": "(centres undefined)", "melting point": "165 to 166"}, {"smiles": "Cc1oc(-c2ccccc2)nc1COc1ccc(Cn2cc(C(=O)O)c(C(C)C)n2)cc1", "melting point": "194 to 195"}, {"smiles": "CNc1ncc(-c2cc(Cl)cc(Cl)c2Cl)c(N)n1", "melting point": "155 to 157"}, {"smiles": "O=C(NC(CS)Cc1ccccc1)N1CCN(c2cccc(C(F)(F)F)c2)CC1", "note": "(single isomer, unassigned; (+))", "melting point": "130 to 132"}, {"smiles": "Nc1nc(/C(=N/OCC(=O)OC(c2ccccc2)c2ccccc2)C(=O)Sc2nc3ccccc3s2)cs1", "melting point": 152}, {"smiles": "COc1ccc(C=CN(C)C)c([N+](=O)[O-])c1[N+](=O)[O-]", "melting point": "100 to 131"}, {"smiles": "O=C1N(Cc2ccc(F)cc2Cl)c2ccccc2C12COc1cc3c(cc12)OCO3", "note": "(centres undefined)", "melting point": "174 to 175"}, {"smiles": "O=C(Oc1ccccc1)C1c2ccccc2Oc2ccc(O)cc21", "note": "(centres undefined)", "melting point": "182 to 184"}]}]}
